Laboratory results published in PubChem BioAssay AID787 (PCMD, 2007).
Activity calls are given as the source filed them. How the calls were made is not given here.

Biological target: Complement C1s subcomponent (Homo sapiens) (UniProt P09871)
Assay: concentration-response of complement C1s inhibitors – biochemical, dose response (AID 787)
Conditions: purified C1s enzyme, fluorogenic substrate, FU read-out

Complement C1s subcomponent (Homo sapiens), sequence (P09871 16-437 limits assumed): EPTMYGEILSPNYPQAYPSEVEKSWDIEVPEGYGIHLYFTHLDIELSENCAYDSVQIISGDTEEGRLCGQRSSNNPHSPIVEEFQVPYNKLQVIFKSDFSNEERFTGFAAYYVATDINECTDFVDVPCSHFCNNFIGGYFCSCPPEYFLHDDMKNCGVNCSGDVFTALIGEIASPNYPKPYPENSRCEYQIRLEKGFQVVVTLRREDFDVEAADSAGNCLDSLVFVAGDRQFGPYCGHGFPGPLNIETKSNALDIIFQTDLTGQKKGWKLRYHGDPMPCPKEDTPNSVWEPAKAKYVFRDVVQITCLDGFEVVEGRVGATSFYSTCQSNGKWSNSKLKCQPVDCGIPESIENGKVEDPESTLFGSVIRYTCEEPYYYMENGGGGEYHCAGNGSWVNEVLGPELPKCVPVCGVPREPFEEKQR
Complement C1s subcomponent (Homo sapiens), sequence (P09871 438-688 limits assumed): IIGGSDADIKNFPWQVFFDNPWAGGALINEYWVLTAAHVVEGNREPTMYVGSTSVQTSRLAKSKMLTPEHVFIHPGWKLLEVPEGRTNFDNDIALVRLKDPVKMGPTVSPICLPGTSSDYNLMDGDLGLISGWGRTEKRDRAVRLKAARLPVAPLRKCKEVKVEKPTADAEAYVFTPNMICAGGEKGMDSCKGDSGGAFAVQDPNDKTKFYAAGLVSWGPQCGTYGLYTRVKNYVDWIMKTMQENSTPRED

SMILES | IC50
Cc1cccc(COc2ccc(/C(O)=C3\C(=O)C(=O)N(CCN(C)C)C3c3ccncc3)cc2)c1 (centres undefined) | > 50 µM (inactive)
COc1cccc(C2=CC(c3cccc(OC)c3OC)n3nnnc3N2)c1 (centres undefined) | > 50 µM (inactive)
O=C1CCCC(O)=C1C=NCCc1ccccc1 | > 50 µM (inactive)
CCOC(=O)N1CC=C2C(C#N)=C(N)C(C#N)(C#N)[C@H](c3ccccc3OCC)[C@H]2C1 | > 50 µM (inactive)
COc1ccc(NC(=O)CSC2=C(C#N)C(c3ccco3)C3=C(CCCC3=O)N2)c(OC)c1 (centres undefined) | > 50 µM (inactive)
CCOc1ccc(N2C(=O)CC(N3CCN(c4ccccc4F)CC3)C2=O)cc1 (centres undefined) | > 50 µM (inactive)
O=C(Oc1ccc(Cl)cc1N1C(=O)CCC1=O)c1ccco1 | > 50 µM (inactive)
COC(=O)Cc1[nH]nc2c1C1(C(=O)N(Cc3ccccc3)c3ccccc31)C(C#N)=C(N)O2 (centres undefined) | > 50 µM (inactive)
O=C1CCCC2=C1C1(CCCCC1)N=C(Nc1nc3ccccc3o1)N2 | > 50 µM (inactive)
